Source: patent US20210252104A1, “ANTIBACTERIAL PEPTIDE MONOMERS AND COMBINATIONS FOR CO-THERAPY” (ARREVUS, INC., priority 2018, published 2021)
In brackets after ≈: the same amount, converted by molar mass. Where two headings read alike, the source gives them in different places. Positions of bridges follow the written chain, without caps; N, C: chain ends. Non-standard residues stand in square brackets, D forms with d. Residues, ends and D or L forms follow the SMILES beside them. Chains are numbered I, II in the order given. *: point of attachment. aThr = C[C@H](O)[C@H](N)C(=O)O; Ac6c = NC1(C(=O)O)CCCCC1; Dab = NCC[C@H](N)C(=O)O; Nva = CCC[C@H](N)C(=O)O; Butyryl = CCCC(=O)*

Key:
[1] = test system: P. aeruginosa ATCC 47085
[2] = test system: A. Baumannii ATCC 19606
[3] = biological target: 70 kDa bacterial heat shock protein DnaK (Escherichia coli, UniProt P0A6Y8); experiment: Binding to DnaK
Source text: The bacterial target of peptide monomers described herein, such as Chex1-Arg20, is believed to be the C-terminal D-E helix of the 70 kDa bacterial heat shock protein DnaK (Otvos et al., J. Med. Chem. 48:5349 (2005); Kragol et al., Biochemistry 40:3016 (2001); Bikker et al., Chem. Biol. Drug Des. 68:148 (2006)). DnaK is a 650-residue protein comprised of 3 distinct domains: (1) N-terminal nucleotide binding domain, (2) C-terminal substrate binding domain and (3) flexible linking domain. […] Peptide monomers described herein bind to DnaK from multiple bacterial species. The MPC of Chex1-Arg20 is reported to be >100 μM, supporting the conclusion that the antibacterial efficacy is […] non-membranolytic. Because DnaK is present in all bacteria, peptide monomers described herein are effective against a wide variety of bacteria and may be effective in combination with all classes of antibiotics.

[4] = test system: K. Pneumoniae ATCC 13883
[5] = test system: E. Coli ATCC 29222
[6] = test system: Burkholderia pseudomallei 1026b; assay type: in vivo
[7] = Post-antibiotic effect (PAE)
Source text: Post-antibiotic Effect (PAE).

[8] = Immunogenicity, antibody production by ELISA; assay type: in vivo; conditions: mice; 5 mg/kg sc twice in a 3-wk interval; blood 4 weeks after second immunization
[9] = test system: E. coli 5770; experiment: Mice challenged ip with E. coli 5770, blood bacterial counts
[10] = test system: A. baumannii HUMC1; experiment: Bacteremia synergy assay 3 (murine bacteremia model); assay type: in vivo
[11] = reported value; cited from earlier work
[12] = test system: E. coli UNT167-1
[13] = test system: K. pneumoniae K97/09; experiment: FIC checkerboard assay (combinations); assay type: cell-based; conditions: for Effect of combining antimicrobials on MIC: K97/09, with imipenem or colistin
[14] = test system: A. baumannii strain (BAA-1605); experiment: FIC checkerboard assay (combinations); assay type: cell-based; conditions: with imipenem (or colistin)
[15] = test system: K. pneumoniae K97/09
[16] = test system: Acinetobacter baumannii BAA-1805 (MACI)
[17] = test system: A. baumannii strain (BAA-1605); experiment: microbe, parasite or virus in culture; assay type: cell-based
[18] = test system: K. pneumoniae K97/09; experiment: microbe, parasite or virus in culture; conditions: Klebsiella pneumoniae
[19] = test system: Acinetobacter baumannii BAA-1805 (MACI); experiment: microbe, parasite or virus in culture; conditions: BAA1805, read-out: MACI MIC (mg/L)
[20] = in vitro; conditions: rat, H-4-II-E cells (ATCC CRL-1548)

Sequence of 70 kDa bacterial heat shock protein DnaK (P0A6Y8 whole entry, the tested form may be a part): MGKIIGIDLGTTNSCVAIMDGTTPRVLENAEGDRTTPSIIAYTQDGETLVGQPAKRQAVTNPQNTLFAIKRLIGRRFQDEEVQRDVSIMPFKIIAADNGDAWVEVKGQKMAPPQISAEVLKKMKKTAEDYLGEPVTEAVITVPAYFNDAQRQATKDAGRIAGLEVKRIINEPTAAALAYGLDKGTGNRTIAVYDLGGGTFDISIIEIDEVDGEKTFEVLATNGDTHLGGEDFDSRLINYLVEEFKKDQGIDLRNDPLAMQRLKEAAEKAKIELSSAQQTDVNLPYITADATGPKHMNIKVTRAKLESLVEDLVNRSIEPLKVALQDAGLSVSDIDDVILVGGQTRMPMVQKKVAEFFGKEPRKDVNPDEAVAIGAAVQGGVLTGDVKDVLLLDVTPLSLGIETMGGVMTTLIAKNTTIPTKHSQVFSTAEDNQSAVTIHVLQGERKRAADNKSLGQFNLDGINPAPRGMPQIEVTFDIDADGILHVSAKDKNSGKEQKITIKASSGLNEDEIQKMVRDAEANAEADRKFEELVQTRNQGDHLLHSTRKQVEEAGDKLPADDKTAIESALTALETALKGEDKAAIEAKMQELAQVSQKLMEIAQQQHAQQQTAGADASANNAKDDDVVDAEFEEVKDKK

CC(C)C[C@H](NC(=O)[C@H](Cc1ccc(O)cc1)NC(=O)[C@@H]1CCCN1C(=O)[C@H](CCCNC(=N)N)NC(=O)[C@@H]1CCCN1C(=O)[C@H](CCCCN)NC(=O)[C@H](CC(=O)O)NC(=O)[C@@H]1CCCN1C(=O)[C@H](CCCNC(=N)N)NC(=O)C1(N)CCCCC1)C(=O)N1CCC[C@H]1C(=O)N[C@@H](CCCNC(=N)N)C(=O)N1CCC[C@H]1C(=O)N[C@@H](CCCNC(=N)N)C(=O)N1CCC[C@H]1C(=O)N1CCC[C@H]1C(=O)N[C@@H](CCCNC(=N)N)C(=O)N1CCC[C@H]1C(=O)N[C@H](C(=O)N[C@@H](CCCNC(=N)N)C(N)=O)C(C)C [Example 1, Chex-RPDKPRPYLPRPRPPRPVR-NH2] (H-[Ac6c]RPDKPRPYLPRPRPPRPVR-NH2)
MIC [1]: 56.3 ± 4.5 µM (≈ 139 µg/mL)
MIC [2]: >100 µM
Kd [3]: 0.41 µM
MIC [4]: 0.8 ± 0.0 µM (≈ 1.98 µg/mL)
MIC [5]: 2.6 ± 0.7 µM (≈ 6.44 µg/mL)
Median survival (days post-challenge) ([6]; Chex1-Arg20 5 mg/kg im monotherapy): 4 days post-challenge
Rescue of mice ([6]; Chex1-Arg20 monotherapy): failed to rescue any mouse
B. pseudomallei load in survivals (CFU/spleen) ([6]; in vivo, 5 mg/kg): No survival
Number of deaths ([6]; in vivo, 5 mg/kg): 10
Post-antibiotic effect (PAE) [7]: 14 h
Antibody production by ELISA [8]: Neither IgG1, IgG2a, IgG3, IgM, nor IgE are observed
Bacterial counts in blood ([9]; 2.5 mg/kg ip, 4 h after challenge (before first dose)): 3.68 × 10^7 CFU/mL
Bacterial counts in blood ([9]; 2.5 mg/kg ip, 8 h after challenge): 4.2 × 10^6 CFU/mL
Bacterial counts in blood ([9]; 2.5 mg/kg ip, 12 h after challenge): <1.7 × 10^6 CFU/mL
Bacterial counts in blood ([9]; 2.5 mg/kg ip, 16 h after challenge): <1 × 10^6 CFU/mL
Bacterial counts in blood ([9]; 2.5 mg/kg ip, 24 h after challenge): <4.8 × 10^5 CFU/mL
Improvement of blood bacterial load ([9]; 2.5 mg/kg ip, by 24 h): not statistically significant
Reduction of blood bacterial load ([9]; 2.5 mg/kg ip, during the 12-h treatment period): 1.5-2 log 10 units
Reduction of blood bacterial counts after inoculation ([9]; 5 mg/kg ip): > 2 log 10 CFU/mL
Bacterial counts in blood ([9]; 5 mg/kg ip, 4 h after challenge (before first dose)): 3.68 × 10^7 CFU/mL
Bacterial counts in blood ([9]; 5 mg/kg ip, 8 h after challenge): 4.3 × 10^5 CFU/mL
Bacterial counts in blood ([9]; 5 mg/kg ip, 12 h after challenge): 1.1 × 10^6 CFU/mL
Bacterial counts in blood ([9]; 5 mg/kg ip, 16 h after challenge): <1.1 × 10^5 CFU/mL
Bacterial counts in blood ([9]; 5 mg/kg ip, 24 h after challenge): <1 × 10^3 CFU/mL
Blood sterilization ([9]; 5 mg/kg ip, at 24 h): complete sterilization of the blood
Time after the last peptide treatment by which the blood was sterilized ([9]; 10 mg/kg ip): ≤ 4 h
Bacterial counts in blood ([9]; 10 mg/kg ip, 4 h after challenge (before first dose)): 3.68 × 10^7 CFU/mL
Bacterial counts in blood ([9]; 10 mg/kg ip, 8 h after challenge): 2.4 × 10^5 CFU/mL
Bacterial counts in blood ([9]; 10 mg/kg ip, 12 h after challenge): 2.9 × 10^5 CFU/mL
Bacterial counts in blood ([9]; 10 mg/kg ip, 16 h after challenge): <1 × 10^3 CFU/mL
Bacterial counts in blood ([9]; 10 mg/kg ip, 24 h after challenge): <1 × 10^3 CFU/mL
Complete response (negative blood culture), test animals ([10]; ARV-1502 5.0 mg/kg treatment group): 100%
Negative blood culture of A. baumannii ([10]; ARV-1502 1.25-5.0 mg/kg treatment groups): dose-dependent negative blood culture
MPC [11]: > 100 µM
MIC [12]: 32 µg/mL (≈ 12.9 µM)

I: H-[Ac6c]RPDKPRPYLGRPRPPRPVR[Dab]-NH2 / II: H-[Ac6c]RPDKPRPYLGRPRPPRPVR (amide I:21-II:C) [Gly11, (H-Chex-Arg-Pro-Asp-Lys-Pro-Arg-Pro-Tyr-Leu-Gly-Arg-Pro-Arg-Pro-Pro-Arg-Pro-Val-Arg)2-Dab-NH2]
Effect of combining antimicrobials on MIC [13]: failed to exert any improvement in the MIC values
Effect of combining antimicrobials on MIC [14]: failed to exert any improvement in the MIC values
KPC MIC ([15]; K97/09): >256 µg/mL
MACI MIC ([16]; Acinetobacter baumannii (MACI)): >256 µg/mL

C[C@@H](O)[C@H]1C(=O)N2C(C(=O)O)=C(SCCN=CN)C[C@H]12 [imipenem]
ΣFIC ([13]; K. pneumoniae K97/09, antibiotic + ARV-1501): 0.5
MIC of antibiotic + ARV-1501 ([13]; K. pneumoniae K97/09, antibiotic in combination with ARV-1501, no unit in table): 4
MIC ([17]; Acinetobacter baumannii, BAA1605, read-out: MIC): 64 µg/mL (≈ 214 µM)
MIC ([18]; K97/09): > 256 mg/L
MIC ([18]; K97/09, read-out: KPC MIC (mg/L)): > 256 mg/L
MIC of antibiotic alone ([15]; K. pneumoniae K97/09, no unit in table (mg/L)): >256
MIC [19]: 64 mg/L (≈ 214 µM)

I: H-[Ac6c]RPDKPRPYLPRPRPPRPVR[Dab]-NH2 / II: H-[Ac6c]RPDKPRPYLPRPRPPRPVR (amide I:21-II:C; C-terminus assumed) [Example A3-APO, (H-Chex-Arg-Pro-Asp-Lys-Pro-Arg-Pro-Tyr-Leu-Pro-Arg-Pro-Arg-Pro-Pro-Arg-Pro-Val-Arg)2-Dab]
KPC MIC ([15]; K97/09): 32 to 64 µg/mL
MACI MIC ([16]; BAA-1805): 32 to 64 µg/mL

colistin
ΣFIC [13]: 0.08
MIC [17]: < 0.5 µg/mL
KPC MIC [15]: 64 µg/mL
MIC [15]: 64 µg/mL
MACI MIC ([16]; Acinetobacter baumannii (MACI)): <0.5 µg/mL

CC(C)C[C@H](NC(=O)[C@H](Cc1ccc(O)cc1)NC(=O)[C@@H]1CCCN1C(=O)[C@H](CCCNC(=N)N)NC(=O)[C@@H]1CCCN1C(=O)[C@H](CCCCN)NC(=O)[C@H](CC(=O)O)NC(=O)[C@@H]1CCCN1C(=O)[C@H](CCCNC(=N)N)NC(=O)C1(N)CCCCC1)C(=O)N1CCC[C@H]1C(=O)N[C@@H](CCCNC(=N)N)C(=O)N1CCC[C@H]1C(=O)N[C@@H](CCCNC(=N)N)C(=O)N1CCC[C@H]1C(=O)N1CCC[C@H]1C(=O)N[C@@H](CCCNC(=N)N)C(=O)N1CCC[C@H]1C(=O)N[C@H](C(=O)N[C@@H](CCCNC(=N)N)C(=O)O)C(C)C [Example 6, Chex-RPDKPRPYLPRPRPPRPVR-OH] (H-[Ac6c]RPDKPRPYLPRPRPPRPVR-OH)
MIC [1]: >100 µM
MIC [2]: >100 µM
CC50 [20]: 48.1 ± 3.4 µM
MIC [4]: 2.0 ± 0.1 µM (≈ 4.95 µg/mL)
MIC [5]: 6.7 ± 1.3 µM (≈ 16.6 µg/mL)

CCCC(=O)N[C@@H](CCCNC(=N)N)C(=O)N1CCC[C@H]1C(=O)N[C@@H](CC(=O)O)C(=O)N[C@@H](CCCCN)C(=O)N1CCC[C@H]1C(=O)N[C@@H](CCCNC(=N)N)C(=O)N1CCC[C@H]1C(=O)N[C@@H](Cc1ccc(O)cc1)C(=O)N[C@@H](CC(C)C)C(=O)N1CCC[C@H]1C(=O)N[C@@H](CCCNC(=N)N)C(=O)N1CCC[C@H]1C(=O)N[C@@H](CCCNC(=N)N)C(=O)N1CCC[C@H]1C(=O)N1CCC[C@H]1C(=O)N[C@@H](CCCNC(=N)N)C(=O)N1CCC[C@H]1C(=O)N[C@H](C(=O)N[C@@H](CCCNC(=N)N)C(N)=O)C(C)C [Example 3, Bu-RPDKPRPYLPRPRPPRPVR-NH2] (Butyryl-RPDKPRPYLPRPRPPRPVR-NH2)
MIC [1]: 96.3 ± 3.2 µM (≈ 233 µg/mL)
MIC [2]: >100 µM
MIC [4]: 2.2 ± 0.4 µM (≈ 5.32 µg/mL)
MIC [5]: 6.5 ± 2.6 µM (≈ 15.7 µg/mL)

CCC[C@H](NC(=O)[C@H](CCC(=O)O)NC(=O)[C@@H](N)[C@H](C)O)C(=O)N[C@H](C(=O)N[C@@H](C)C(=O)N[C@@H](CC(C)C)C(=O)N[C@@H](CO)C(=O)N[C@@H](CCCNC(=N)N)C(=O)NC1(C(N)=O)CCCCC1)C(C)C [Allo-aca] (H-[aThr]E[Nva]VALSR[Ac6c]-NH2)
Effect of combining antimicrobials on MIC [13]: failed to exert any improvement in the MIC values
Effect of combining antimicrobials on MIC [14]: failed to exert any improvement in the MIC values
MIC ([15]; K97/09): > 256 µg/mL
